The source made the active and inactive calls. The rule behind the calls is not given here.
How the values were obtained:
[1] = target: T1, Toll-like receptor 4 (Mus musculus, UniProt Q9QUK6); experiment: Antagonist activity at TLR4 in mouse BV-2 cells assessed as inhibition of LPS-induced NO overproduction incubated for 24 hrs by 2,3-diaminonaphthalene reagent based microplate reader analysis; assay type: cell-based
T1 sequence (Q9QUK6 whole entry): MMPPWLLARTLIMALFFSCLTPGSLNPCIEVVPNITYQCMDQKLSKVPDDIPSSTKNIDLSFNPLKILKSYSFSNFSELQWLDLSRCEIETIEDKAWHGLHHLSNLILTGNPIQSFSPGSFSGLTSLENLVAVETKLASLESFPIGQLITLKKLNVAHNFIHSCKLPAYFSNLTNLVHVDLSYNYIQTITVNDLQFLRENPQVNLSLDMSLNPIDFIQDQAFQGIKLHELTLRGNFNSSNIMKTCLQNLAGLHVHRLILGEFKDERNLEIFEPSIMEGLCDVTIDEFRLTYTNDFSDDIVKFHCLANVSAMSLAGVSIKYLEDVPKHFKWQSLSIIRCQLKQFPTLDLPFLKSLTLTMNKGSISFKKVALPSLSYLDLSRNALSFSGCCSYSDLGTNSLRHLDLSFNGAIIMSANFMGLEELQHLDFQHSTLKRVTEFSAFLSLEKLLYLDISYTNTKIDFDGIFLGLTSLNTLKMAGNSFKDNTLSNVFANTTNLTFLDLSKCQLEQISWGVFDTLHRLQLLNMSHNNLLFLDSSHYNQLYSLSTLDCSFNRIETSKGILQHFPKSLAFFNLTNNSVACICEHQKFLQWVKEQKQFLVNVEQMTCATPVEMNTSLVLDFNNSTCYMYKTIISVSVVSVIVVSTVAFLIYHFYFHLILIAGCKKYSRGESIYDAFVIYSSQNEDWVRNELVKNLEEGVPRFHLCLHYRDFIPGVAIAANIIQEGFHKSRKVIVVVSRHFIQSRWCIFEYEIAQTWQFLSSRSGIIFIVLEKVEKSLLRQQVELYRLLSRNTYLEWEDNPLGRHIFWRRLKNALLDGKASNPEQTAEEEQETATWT

[2] = target: T2, Toll-like receptor 4 (Mus musculus) (UniProt Q9QUK6); experiment: Antagonist activity at TLR4 signaling pathway in mouse BV-2 cells assessed as downregulation of LPS-induced IRF-3 phosphorylation at 5 uM incubated for 1 hr by Western blot analysis; assay type: cell-based
T2 sequence (whole entry): T1 sequence (Q9QUK6 whole entry)

[3] = target: T2, Toll-like receptor 4 (Mus musculus); experiment: Antagonist activity at TLR4 signaling pathway in mouse BV-2 cells assessed as inhibition of LPS-induced MyD88 recruitment at 5 uM incubated for 1 hr by co-immunoprecipitation based Western blot analysis; assay type: cell-based
[4] = target: T2, Toll-like receptor 4 (Mus musculus); experiment: Antagonist activity at TLR4 signaling pathway in mouse BV-2 cells assessed as inhibition of LPS-induced TRIF recruitment at 5 uM incubated for 1 hr by co-immunoprecipitation based Western blot analysis; assay type: cell-based
[5] = target: T2, Toll-like receptor 4 (Mus musculus); experiment: Antagonist activity at TLR4 in mouse BV-2 cells assessed as inhibition of LPS-induced TNF-alpha production at 0.01 to 100 uM by ELISA; assay type: cell-based; conditions: dose 0.01-100 µM
[6] = target: T2, Toll-like receptor 4 (Mus musculus); experiment: Antagonist activity at TLR4 signaling pathway in mouse BV-2 cells assessed as downregulation of LPS-induced IKKbeta phosphorylation at 5 uM incubated for 1 hr by Western blot analysis; assay type: cell-based
[7] = target: T2, Toll-like receptor 4 (Mus musculus); experiment: Antagonist activity at TLR4 signaling pathway in mouse BV-2 cells assessed as downregulation of LPS-induced JNK phosphorylation at 5 uM incubated for 1 hr by Western blot analysis; assay type: cell-based
[8] = target: T2, Toll-like receptor 4 (Mus musculus); experiment: Antagonist activity at TLR4 signaling pathway in mouse BV-2 cells assessed as downregulation of LPS-induced IKKalpha phosphorylation at 5 uM incubated for 1 hr by Western blot analysis; assay type: cell-based
[9] = target: T2, Toll-like receptor 4 (Mus musculus); experiment: Antagonist activity at TLR4 signaling pathway in mouse BV-2 cells assessed as downregulation of LPS-induced ERK phosphorylation at 5 uM incubated for 1 hr by Western blot analysis; assay type: cell-based
[10] = target: T2, Toll-like receptor 4 (Mus musculus); experiment: Antagonist activity at TLR4 in mouse BV-2 cells assessed as inhibition of LPS-induced NF-kappaB activation at 4 uM incubated for 24 hrs by dual-glo luciferase assay; assay type: cell-based
[11] = system: Mus musculus; experiment: Inhibition of morphine-induced addiction behavior in Balb/c mouse assessed as decrease in locomotor activity at 0.2 mg/kg,ip administrated on day 4 to 10 by open-field test; assay type: functional, organism-based; conditions: time 7.0 day
[12] = system: Mus musculus; experiment: Inhibition of chronic morphine-induced microglia activation in Balb/c mouse assessed as reduction in Iba1 expression in nucleus accumbens region at 0.2 mg/kg,ip administrated for 6 consecutive days by immunofluorescence staining based analysis; assay type: functional, organism-based
[13] = system: Mus musculus; experiment: Inhibition of morphine-induced addiction behavior in Balb/c mouse assessed reduction in CPP score at 0.2 mg/kg,ip administrated for 6 consecutive days by conditioned place preference assay; assay type: functional, organism-based
[14] = system: Mus musculus; experiment: Inhibition of chronic morphine-induced microglia activation in Balb/c mouse assessed as reduction in microglia cell number in brain medial prefrontal cortex region at 0.2 mg/kg,ip administrated for 6 consecutive days by immunofluorescence staining based analysis; assay type: functional, organism-based
[15] = system: Mus musculus; experiment: Inhibition of chronic morphine-induced microglia activation in Balb/c mouse assessed as reduction in TNF-alpha mRNA expression in brain medial prefrontal cortex region at 0.2 mg/kg,ip administrated for 6 consecutive days by qPCR analysis; assay type: functional, organism-based
[16] = system: Mus musculus; experiment: Inhibition of chronic morphine-induced microglia activation in Balb/c mouse assessed as reduction in TNF-alpha mRNA expression in brain nucleus accumbens region at 0.2 mg/kg,ip administrated for 6 consecutive days by qPCR analysis; assay type: functional, organism-based
[17] = system: Mus musculus; experiment: Inhibition of chronic morphine-induced microglia activation in Balb/c mouse assessed as reduction in microglia cell number in brain nucleus accumbens region at 0.2 mg/kg,ip administrated for 6 consecutive days by immunofluorescence staining based analysis; assay type: functional, organism-based
[18] = system: Mus musculus; experiment: Inhibition of chronic morphine-induced microglia activation in Balb/c mouse assessed as reduction in microglia cell number in brain ventral tegmental area region at 0.2 mg/kg,ip administrated for 6 consecutive days by immunofluorescence staining based analysis; assay type: functional, organism-based
[19] = system: Mus musculus; experiment: Inhibition of chronic morphine-induced microglia activation in Balb/c mouse assessed as reduction in Iba1 expression in brain ventral tegmental area region at 0.2 mg/kg,ip administrated for 6 consecutive days by immunofluorescence staining based analysis; assay type: functional, organism-based
[20] = system: Mus musculus; experiment: Inhibition of chronic morphine-induced microglia activation in Balb/c mouse assessed as reduction in Iba1 expression in brain medial prefrontal cortex region at 0.2 mg/kg,ip administrated for 6 consecutive days by immunofluorescence staining based analysis; assay type: functional, organism-based
[21] = system: Mus musculus; experiment: Inhibition of chronic morphine-induced microglia activation in Balb/c mouse assessed as reduction in TNF-alpha mRNA expression in brain ventral tegmental area region at 0.2 mg/kg,ip administrated for 6 consecutive days by qPCR analysis; assay type: functional, organism-based

With `COc1ccc2c3c1O[C@@H]1C(=O)CC[C@@H]4[C@H](C2)N(C)CC[C@@]314` the IC50 [1] was greater than 200 µM.
In the case of `COc1ccc2c3c1O[C@@H]1C(OC)(OC)C(Br)C[C@@H]4[C@H](C2)N(C)CC[C@]341` (some centres not stated), the IC50 [1] is reported as greater than 200 µM.
`COc1ccc2c3c1O[C@@H]1C(=O)CC[C@]4(OC(C)=O)[C@H](C2)N(C)CC[C@@]314` showed an IC50 [1] greater than 200 µM.
For `COc1ccc2c3c1O[C@@H]1C(OC)(OC)CC[C@@H]4[C@H](C2)N(C)CC[C@]341`, the IC50 [1] was greater than 200 µM.
`COc1ccc2c3c1O[C@@H]1C(=O)C=C[C@@H]4[C@H](C2)N(C)CC[C@@]314` was tested, and the IC50 [1] was 6.9 µM.
`CN1CC[C@@]23c4c5ccc(O)c4O[C@@H]2C(=O)CC[C@]3(O)[C@@H]1C5` was tested, and the Activity [2] was “inactive”, the Activity [3] was “inactive” and the Activity [4] was “inactive”. The Activity [5] was “inactive”, the Activity [6] was “inactive” and the Activity [7] was “inactive”. The IC50 [1] was 33.5 µM, the Activity [8] was “inactive” and the Activity [9] was “inactive”. The Activity [10] was “inactive”.
`COC1=CC=C2[C@@H]3Cc4ccc(OC)c5c4[C@]2(CCN3C)[C@@H]1O5` gave an IC50 [1] of 197 µM.
Work on `COc1ccc2c(c1O)[C@@]13CCN(C)[C@@H](C2)[C@H]1CC(OC)C(=O)C3` (some centres not stated) yielded an IC50 [1] greater than 200 µM.
`COc1ccc2c3c1O[C@@H]1C(=O)CC[C@]4(OC(C)=O)[C@H](C2)N(C#N)CC[C@@]314` gave an IC50 [1] of 67.8 µM.
`COC1=CC[C@@H]2[C@@H]3Cc4ccc(OC)c5c4[C@]2(CCN3C)[C@@H]1O5` gave an IC50 [1] greater than 200 µM.
Work on `COc1ccc2c3c1O[C@@H]1C(=O)CC[C@]4(O)[C@H](C2)NCC[C@@]314` yielded an IC50 [1] greater than 200 µM.
In the case of `O=C1CC[C@]2(O)[C@@H]3Cc4ccc(O)c5c4[C@]2(CCN3CC2CC2)[C@@H]1O5`, the inhibition [11] is reported as “Active”, the inhibition [12] is reported as “inactive” and the inhibition [13] is reported as “inactive”. For the same compound, the inhibition [14] was “inactive”, the inhibition [15] was “inactive” and the inhibition [16] was “inactive”. The inhibition [17] was “inactive”, the inhibition [18] was “inactive” and the inhibition [19] was “inactive”. For the same compound, the inhibition [20] was “inactive” and the inhibition [21] was “inactive”.
For `COc1ccc2c3c1O[C@@H]1C(=O)CC[C@]4(O)[C@H](C2)N(C)CC[C@@]314` (single isomer, unassigned), the Activity [2] was “inactive”, the Activity [3] was “inactive” and the Activity [4] was “inactive”. For the same compound, the Activity [5] was “inactive”, the Activity [6] was “inactive” and the Activity [7] was “inactive”. The IC50 [1] was greater than 200 µM, the Activity [8] was “inactive” and the Activity [9] was “inactive”. For the same compound, the Activity [10] was “inactive”.
Work on `COC1=C[C@@H]2[C@@H]3Cc4ccc(OC)c(O)c4[C@]2(CCN3C)CC1=O` [SINOMENINE] yielded an IC50 [1] greater than 200 µM.
